Like-named read-outs stand apart in the source and are kept apart here.
Assays:
[1] = molecular target: T1, p53 Y220C mutant protein (amino acid residues 94-293) (Homo sapiens, UniProt P04637, Y220C); experiment: Surface Plasmon Resonance (SPR) assay, Kd_kinetic; assay type: binding; settings: SPR, p53 Y220C, read-out: SPR P53 Y220C KD kinetic
T1 construct: p53 Y220C mutant protein (amino acid residues 94-293)
Description: Surface Plasmon Resonance (SPR) Assay Protocol
SPR experiments were performed on a Biacore 8K instrument. […] The running buffer contained 50 mM Tris, pH 7.5, 100 mM NaCl, 1 mM DTT, 0.01% Brij35, 0.05% Tween-20 and 1% DMSO. The assay temperature was maintained at 16 or 20 °C and data were fit into the 1:1 binding model using the Biacore Insight Evaluation software.

p53 Y220C = p53 Y220C (Homo sapiens, UniProt P04637, Y220C); experiment: Luciferase Reporter Assay (Luc), p53 response element, NClH1299 cells with inducible p53 Y220C; assay type: cell-based; settings: 6 hour; for AC50: read-out: Luc P53 Y220C AC50
Description: Luciferase Reporter Assay Protocol
The cells were then used for p53 reporter assay. 5,000 cells were seeded in each well of 384 plate and cultured in 0.5 ug/mL doxycycline (D3072; Sigma) containing medium for 24 hours before compound treatment. After 6 hour of compound treatment, equal volume of One-Glo reagent (E6110; Promega) was added to each well and the plate was incubated for 5 minutes with shaking at room temperature. The luciferase activity was immediately measured with PheraStar microplate reader.

NUGC3 p53 Y220C = experiment: Cell Proliferation Assay (CellTiter-Glo, CTG), NUGC3 p53 Y220C; assay type: cell-based; settings: Homo sapiens, NUGC-3, 120 h, 5 days
Description: (§1) Inducible p53 Y220C and R273H constructs (Tet-One inducible expression system; Takara) were stably expressed in NClH1299 cells by lentiviral transduction. NUGC3, A549, BxPC3, T3M4, HuH7, HCC2935, MFE296, NClH1299, NClH1299-inducible p53 Y220C, and NClH1299-inducible p53 R273H cell lines were used for cell proliferation assay. 250-500 cells were seeded in each well of 384 plate and then compounds were dispensed into each well using Echo or Tecan. After 5 days of incubation, equal volume of CellTiter-Glo reagent (G7570; Promega) was added into each well and the plate was incubated at room temperature for 10 minutes with shaking. The luminescent signal was measured by PheraStar microplate reader and IC50 was calculated.

H1299 p53 Y220C = experiment: Cell Proliferation Assay (CellTiter-Glo, CTG), H1299 p53 Y220C (NClH1299-inducible p53 Y220C); assay type: cell-based; settings: Homo sapiens, NCI-H1299, 120 h, 5 days
Description: as §1

H1299 p53 R273H = experiment: Cell Proliferation Assay (CellTiter-Glo, CTG), H1299 p53 R273H (NClH1299-inducible p53 R273H); assay type: cell-based; settings: Homo sapiens, NCI-H1299, 120 h, 5 days
Description: as §1

[2] = Emax, luciferase reporter, NClH1299 inducible p53 Y220C
[3] = NClH1299-inducible p53 Y220C cells, CellTiter-Glo
[4] = NClH1299-inducible p53 R273H cells, CellTiter-Glo
[5] = AC50, luciferase reporter, NClH1299 inducible p53 Y220C
[6] = AC50, NClH1299 cells with inducible p53 Y220C
[7] = NClH1299-inducible p53 Y220C cells

T1 sequence (P04637 94-293, stated change not applied): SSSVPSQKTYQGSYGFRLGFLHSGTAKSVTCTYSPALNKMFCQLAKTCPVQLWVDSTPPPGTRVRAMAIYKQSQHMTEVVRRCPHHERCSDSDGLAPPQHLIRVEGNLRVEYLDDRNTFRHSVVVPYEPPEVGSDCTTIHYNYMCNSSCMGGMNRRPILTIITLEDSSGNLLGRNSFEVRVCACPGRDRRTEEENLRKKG

SMILES | Emax (p53 Y220C; [2]) [%] | IC50 (NUGC3 p53 Y220C; NUGC3 cells, CellTiter-Glo) [µM] | IC50 (H1299 p53 Y220C; [3]) [µM] | IC50 (H1299 p53 R273H; [4]) [µM] | AC50 (p53 Y220C; [5]) [µM] | also measured
CNC(=O)c1c[nH]nc1NCC#Cc1nc2c(N[C@@H]3CCN(C)C[C@@H]3F)cccn2c1SC(F)(F)F [Example 198] |  |  |  |  |  | Kd ([1]; kinetic KD): < 0.01 µM; Emax (p53 Y220C; luciferase reporter, NClH1299 inducible p53 Y220C, 10 uM tool compound as positive control): 80 to 90%; AC50 (p53 Y220C; luciferase reporter, NClH1299 inducible p53 Y220C): < 0.75 µM; IC50 (NUGC3 p53 Y220C; CellTiter-Glo, NUGC3 p53 Y220C): < 0.75 µM; IC50 (H1299 p53 Y220C; CellTiter-Glo, H1299 p53 Y220C): < 0.75 µM; IC50 (H1299 p53 R273H; CellTiter-Glo, H1299 p53 R273H): ≥ 10 µM
CNC(=O)c1ccc(NCC#Cc2nc3c(N[C@H]4C[C@@H]5COC[C@@H](N5)[C@H]4F)cccn3c2SC(F)(F)F)c(OC)c1 [Example 279] | 70 to 80 | > 3 | > 3 | ≥ 10 |  | 
CNS(=O)(=O)c1ccc(NCC#Cc2cc3c(N[C@@H]4CCN(C)C[C@@H]4F)cccn3c2SC(F)(F)F)c(OC)c1 [Example 360] | < 70 | > 3 | > 3 | 5 to 8 | > 3 | 
COc1cc(S(N)(=O)=O)ccc1NCC#Cc1cc2c(N[C@@H]3CCN(C)C[C@@H]3F)cccn2c1SC(F)(F)F [Example 362] | 70 to 80 | > 3 | > 3 | 8 to 10 | > 3 | 
CNC(=O)c1ccc(NCC#Cc2nn3c(N[C@@H]4CCN(C)C[C@@H]4F)cccc3c2SC(F)F)c(OC)c1 [Example 366] | 70 to 80 | < 0.75 | < 0.75 | ≥ 10 |  | 
CNC(=O)c1ccc(OC)c(NCC#Cc2cc3c(N[C@@H]4CCN(C[C@@H](C)O)C[C@@H]4F)nccn3c2SC(F)(F)F)c1 [Example 401] | > 90 | < 0.75 | < 0.75 | 8 to 10 | < 0.75 | 
COc1ccc(C(=O)NC[C@H](O)CO)cc1NCC#Cc1cc2c(N[C@@H]3CCN(C)C[C@@H]3F)cccn2c1SC(F)(F)F [Example 425] | > 90 | < 0.75 | < 0.75 | ≥ 10 | < 0.75 | 
COc1cc(P(C)(C)=O)ncc1NCC#Cc1cc2c(N[C@@H]3CCN(C)C[C@@H]3F)cccn2c1SC(F)(F)F [Example 439, 2-(3-{[6-(dimethylphosphoryl)-4-methoxypyridin-3-yl]amino}prop-1-yn-1-yl)-N-[(3S,4R)-3-fluoro-1-methylpiperidin-4-yl]-3-[(trifluoromethyl)sulfanyl]indolizin-8-amine] | > 90 | < 0.75 | < 0.75 | ≥ 10 | < 0.75 | 
CN1CC[C@@H](Nc2cccn3c(SC(F)(F)F)c(C#CCNc4cc(C(=O)NCC(C)(C)O)ccc4OC4COC4)cc23)[C@@H](F)C1 [Example 459, 3-{[3-(8-{[(3S,4R)-3-fluoro-1-methylpiperidin-4-yl]amino}-3-[(trifluoromethyl)sulfanyl]indolizin-2-yl)prop-2-yn-1-yl]amino}-N-(2-hydroxy-2-methylpropyl)-4-(oxetan-3-yloxy)benzamide] |  |  |  |  |  | AC50 (p53 Y220C; [6]): < 0.75 µM; Emax (p53 Y220C; Emax, NClH1299 cells with inducible p53 Y220C, 10 uM tool compound as positive control): > 90%; IC50 (NUGC3 p53 Y220C; NUGC3 cells): < 0.75 µM; IC50 (H1299 p53 Y220C; [7]): < 0.75 µM; IC50 (H1299 p53 R273H; NClH1299-inducible p53 R273H cells): ≥ 10 µM
CNC(=O)c1ccc(OC)c(NCC#Cc2cc3c(N[C@@H]4CCN(C)C[C@@H]4F)cccn3c2CC(F)(F)F)c1 [Example 509] |  |  |  |  |  | Kd [1]: < 0.01 µM; AC50 (p53 Y220C; [6]): < 0.75 µM; IC50 (NUGC3 p53 Y220C; NUGC3 cells): < 0.75 µM; IC50 (H1299 p53 Y220C; [7]): < 0.75 µM
CNC(=O)c1ccc(NCC#Cc2cc3c(N[C@@H]4CCN(C)C[C@@H]4F)cccn3c2CC(F)(F)F)c(OC)c1 [Example 510] |  |  |  |  |  | Kd [1]: < 0.01 µM; AC50 (p53 Y220C; [6]): < 0.75 µM; IC50 (NUGC3 p53 Y220C; NUGC3 cells): < 0.75 µM; IC50 (H1299 p53 Y220C; [7]): < 0.75 µM
